From patent publication US11299641B2, “Curable liquid composition, composition-accommodating container, liquid composition discharging device, cured material, and method of manufacturing cured material” (RICOH COMPANY, LTD., priority 2018, dated 2022)

System: female mice
Experiment: skin sensitization test in accordance with the Local Lymph Node Assay (LLNA) method, SI value
Type: in vivo
Conditions: test substance 50.0 w/v percent in acetone/olive oil 4 to 1, 25 μL per ear once a day for three days, BrdU intake
Experimental: The SI value was measured in the manner described below according to the skin sensitization test in accordance with the Local Lymph Node Assay (LLNA) method.
α-hexylcinnamaldehyde (HCA; product of FUJIFILM Wako Pure Chemical Corporation) was used as positive control material.
A liquid mixture containing acetone (product of FUJIFILM Wako Pure Chemical Corporation) and olive oil (product of Fudimi Pharmaceutical Co., Ltd.) in a volume ratio of 4 to 1 was used as medium.
For each of the test substances, the positive control, or the medium control, female mice were acclimated for 8 days including 6-day quarantine. No abnormalities were found in all the mice during the quarantine/acclimation period.
Based on the body weights measured two days before the initiation of sensitization, the mice were categorized into 2 groups (4 mice/group) by the body weight stratified random sampling method so that the body weight of each individual was within −20 to +20 percent of the average body weight of all the individuals. Each of the tested animals was 8 to 9 weeks old at the time of the initiation of sensitization. The individuals not classified into the groups were excluded from the test.
The group compositions of the medium control group and positive control group used for the measurement of the SI value are shown in Table 1.
The test substance was weighed in a measuring flask, and the volume of the test substance was adjusted to 1 mL while adding the medium. The thus-prepared test substance solution was placed in a light-shielded airtight container (made of glass).
The preparation solution and the medium of each test substance and positive control substance were applied to both ears of each animal in an amount of 25 μL for each. A micropipettor was used for application. The tested animals were subjected to this treatment once a day for three consecutive days.
About 48 hours after the final sensitization, the BrdU preparation solution (0.5 mL) was intraperitoneally administered once to each of the tested animals.
All the animals used for the test were observed once or more times a day from the day of the initiation of sensitization to the day of the removal of the auricular lymph node (i.e., the day when the animals were transferred from the animal room). […] Measurement of Body Weights The body weight of each of the tested animals was measured on the day of the initiation of sensitization and on the day of the removal of the auricular lymph node (i.e., the day when the animals were transferred from the animal room). Also, the weight average and the standard error for each group were calculated. Removal of Auricular Lymph Node and Measurement of Weight Thereof About 24 hours after the administration of BrdU, the tested animals were allowed to undergo euthanasia, and their auricular lymph nodes were sampled. The surrounding tissue of each auricular lymph node was removed, and the auricular lymph nodes from both the auricles were collectively weighed. Also, the weight average and the standard error of the auricular lymph nodes for each group were calculated. After the weight measurement, the auricular lymph nodes of each individual were stored in a frozen state using a BIO MEDICAL FREEZER set to −20 degrees C. Measurement of BrdU Intake After returning the auricular lymph nodes to room temperature, the auricular lymph nodes were mashed with the gradual addition of physiological saline, and suspended therein. The thus-obtained suspension was filtrated and thereafter dispensed into a 96-well microplate 3 wells by 3 wells per individual. The thus-dispensed suspensions were measured for intake of BrdU according to the ELISA method. The reagents used were a commercially available kit (Cell Proliferation ELISA, BrdU colorimetric, Cat. No. 1647229, product of Roche Diagnostics K.K.). […]

Molecule	SI value in the LLNA test
C=C(C)C(=O)OCCOCCOC(=O)C(=C)C [Example A1, Diethylene glycol dimethacrylate]	1.1
C=CC(=O)OCCCCCCCCCCCCCCCC(C)C [Example A5, Isostearyl acrylate]	1.4
C=C(C)C(=O)OCC(CO)OC(=O)C(=C)C (stereo not drawn) [Example A7, Glycerol dimethacrylate]	1.2
C=C(C)C(=O)OCC(O)CO (stereo not drawn) [Example A8, Glycerol monomethacrylate]	1.1
CCC(Cc1ccccc1)(C(=O)c1ccc(N2CCOCC2)cc1)N(C)C (stereo not drawn) [Example B3, 2-(dimethylamino)-1-(4-morpholinophenyl)-2-benzyl-1-butanone]	10
Polypropylene glycol diacrylate [Example A4]	1.5
Tricyclodecanedimethanol dimethacrylate [Example A6]	1.3

System: not given
Experiment: not given
Conditions: Safety Data Sheet; cited from earlier work

Molecule	skin sensitization, evaluation by SDS
CC(C)(O)C(=O)c1ccc(OCCO)cc1 [Example B1, 1-[4-(2-hydroxyethoxy)-phenyl]-2-hydroxy-2-methyl-1-propane-1-one]	none
Caprolactone-modified dipentaerythritol hexaacrylate [Example A2]	none
